Numbers after ± are expanded uncertainties.
Assay: mn = molality of the nth substance listed, in mol/kg
Conditions: Liquid, Alternating current cell with electrodes

## OB(O)O [boric acid] + O
298.15 K, 19767 kPa, m1 = 0.000461
  electrical conductivity: 2.9e-05 ± 2.2e-05 S/m
298.15 K, 19767 kPa, m1 = 0.001034
  electrical conductivity: 4.34e-05 ± 2.2e-05 S/m
298.15 K, 19767 kPa, m1 = 0.002214
  electrical conductivity: 7.29e-05 ± 2.2e-05 S/m
298.15 K, 19767 kPa, m1 = 0.003558
  electrical conductivity: 8.46e-05 ± 2.3e-05 S/m
298.15 K, 19767 kPa, m1 = 0.006801
  electrical conductivity: 0.000104 ± 2.3e-05 S/m
298.15 K, 19767 kPa, m1 = 0.01448
  electrical conductivity: 0.000141 ± 1.5e-05 S/m
298.15 K, 19767 kPa, m1 = 0.03227
  electrical conductivity: 0.000203 ± 2.9e-05 S/m
298.15 K, 19767 kPa, m1 = 0.05626
  electrical conductivity: 0.000261 ± 5e-05 S/m
298.15 K, 19767 kPa, m1 = 0.1313
  electrical conductivity: 0.000513 ± 3.1e-05 S/m
373.33 K, 19683 kPa, m1 = 0.002216
  electrical conductivity: 0.000155 ± 9.3e-06 S/m
373.33 K, 19683 kPa, m1 = 0.01449
  electrical conductivity: 0.000175 ± 3.5e-05 S/m
373.33 K, 19683 kPa, m1 = 0.02381
  electrical conductivity: 0.000262 ± 1.6e-05 S/m
373.33 K, 19683 kPa, m1 = 0.04334
  electrical conductivity: 0.000409 ± 2.5e-05 S/m
373.33 K, 19683 kPa, m1 = 0.07421
  electrical conductivity: 0.000597 ± 3.6e-05 S/m
448.23 K, 19666 kPa, m1 = 0.0004623
  electrical conductivity: 0.000302 ± 1.8e-05 S/m
448.23 K, 19666 kPa, m1 = 0.00294
  electrical conductivity: 0.000347 ± 2.1e-05 S/m
448.23 K, 19666 kPa, m1 = 0.00873
  electrical conductivity: 0.000421 ± 2.5e-05 S/m
448.23 K, 19666 kPa, m1 = 0.01287
  electrical conductivity: 0.000473 ± 2.9e-05 S/m
448.23 K, 19666 kPa, m1 = 0.0243
  electrical conductivity: 0.00059 ± 3.6e-05 S/m
448.23 K, 19666 kPa, m1 = 0.03791
  electrical conductivity: 0.000706 ± 4.2e-05 S/m
448.23 K, 19666 kPa, m1 = 0.07013
  electrical conductivity: 0.000939 ± 5.7e-05 S/m
448.23 K, 19666 kPa, m1 = 0.1015
  electrical conductivity: 0.00114 ± 6.8e-05 S/m
523.32 K, 19674 kPa, m1 = 0.0005523
  electrical conductivity: 0.000382 ± 2.3e-05 S/m
523.32 K, 19674 kPa, m1 = 0.001757
  electrical conductivity: 0.000393 ± 2.4e-05 S/m
523.32 K, 19674 kPa, m1 = 0.004534
  electrical conductivity: 0.000408 ± 2.4e-05 S/m
523.32 K, 19674 kPa, m1 = 0.009517
  electrical conductivity: 0.000445 ± 2.7e-05 S/m
523.32 K, 19674 kPa, m1 = 0.02168
  electrical conductivity: 0.000515 ± 3.1e-05 S/m
523.32 K, 19674 kPa, m1 = 0.04237
  electrical conductivity: 0.000632 ± 3.8e-05 S/m
523.32 K, 19674 kPa, m1 = 0.07216
  electrical conductivity: 0.00078 ± 4.7e-05 S/m
523.32 K, 19674 kPa, m1 = 0.1017
  electrical conductivity: 0.000922 ± 5.5e-05 S/m
547.2 K, 20900 kPa, m1 = 0.0009361
  electrical conductivity: 0.000382 ± 2.3e-05 S/m
547.2 K, 20900 kPa, m1 = 0.002371
  electrical conductivity: 0.000395 ± 2.4e-05 S/m
547.2 K, 20900 kPa, m1 = 0.003744
  electrical conductivity: 0.000405 ± 2.5e-05 S/m
547.2 K, 20900 kPa, m1 = 0.00586
  electrical conductivity: 0.000419 ± 2.6e-05 S/m
547.2 K, 20900 kPa, m1 = 0.008845
  electrical conductivity: 0.000439 ± 5.1e-05 S/m
547.2 K, 20900 kPa, m1 = 0.01163
  electrical conductivity: 0.000459 ± 5.2e-05 S/m
547.2 K, 20900 kPa, m1 = 0.01515
  electrical conductivity: 0.000481 ± 5.1e-05 S/m
547.2 K, 20900 kPa, m1 = 0.02429
  electrical conductivity: 0.000535 ± 3.2e-05 S/m
548.35 K, 19600 kPa, m1 = 0.0008359
  electrical conductivity: 0.000374 ± 2.5e-05 S/m
548.35 K, 19600 kPa, m1 = 0.002368
  electrical conductivity: 0.000385 ± 2.5e-05 S/m
548.35 K, 19600 kPa, m1 = 0.005537
  electrical conductivity: 0.000406 ± 2.7e-05 S/m
548.35 K, 19600 kPa, m1 = 0.01208
  electrical conductivity: 0.000447 ± 2.7e-05 S/m
548.35 K, 19600 kPa, m1 = 0.02063
  electrical conductivity: 0.000495 ± 3e-05 S/m
548.35 K, 19600 kPa, m1 = 0.0288
  electrical conductivity: 0.000538 ± 3.2e-05 S/m
548.35 K, 19600 kPa, m1 = 0.04625
  electrical conductivity: 0.000617 ± 3.7e-05 S/m
548.35 K, 19600 kPa, m1 = 0.1015
  electrical conductivity: 0.000921 ± 5.5e-05 S/m
571.07 K, 19463 kPa, m1 = 0.000429
  electrical conductivity: 0.000323 ± 2.2e-05 S/m
571.07 K, 19463 kPa, m1 = 0.001139
  electrical conductivity: 0.000331 ± 2.2e-05 S/m
571.07 K, 19463 kPa, m1 = 0.004203
  electrical conductivity: 0.00035 ± 2.3e-05 S/m
572.82 K, 20769 kPa, m1 = 0.0002704
  electrical conductivity: 0.000339 ± 2.1e-05 S/m
572.82 K, 20769 kPa, m1 = 0.0005746
  electrical conductivity: 0.000349 ± 2.1e-05 S/m
572.82 K, 20769 kPa, m1 = 0.001483
  electrical conductivity: 0.000358 ± 2.2e-05 S/m
572.82 K, 20769 kPa, m1 = 0.00287
  electrical conductivity: 0.000369 ± 2.2e-05 S/m
572.82 K, 20769 kPa, m1 = 0.006337
  electrical conductivity: 0.000389 ± 2.3e-05 S/m
572.82 K, 20769 kPa, m1 = 0.01032
  electrical conductivity: 0.000414 ± 2.5e-05 S/m
572.82 K, 20769 kPa, m1 = 0.01719
  electrical conductivity: 0.000445 ± 2.7e-05 S/m
572.82 K, 20769 kPa, m1 = 0.0361
  electrical conductivity: 0.000516 ± 3.1e-05 S/m
572.82 K, 20769 kPa, m1 = 0.05276
  electrical conductivity: 0.000569 ± 3.4e-05 S/m
597.9 K, 20618 kPa, m1 = 0.0004999
  electrical conductivity: 0.000217 ± 2.6e-05 S/m
597.9 K, 20618 kPa, m1 = 0.0008991
  electrical conductivity: 0.000223 ± 2.7e-05 S/m
597.9 K, 20618 kPa, m1 = 0.001756
  electrical conductivity: 0.000227 ± 2.7e-05 S/m
597.9 K, 20618 kPa, m1 = 0.003156
  electrical conductivity: 0.000233 ± 2.8e-05 S/m
597.9 K, 20618 kPa, m1 = 0.00593
  electrical conductivity: 0.000242 ± 2.9e-05 S/m
597.9 K, 20618 kPa, m1 = 0.01032
  electrical conductivity: 0.000257 ± 3.1e-05 S/m
597.9 K, 20618 kPa, m1 = 0.02561
  electrical conductivity: 0.000303 ± 3.6e-05 S/m
621.13 K, 20620 kPa, m1 = 0.0003582
  electrical conductivity: 0.000117 ± 1.4e-05 S/m
621.13 K, 20620 kPa, m1 = 0.0009385
  electrical conductivity: 0.000117 ± 1.4e-05 S/m
621.13 K, 20620 kPa, m1 = 0.002851
  electrical conductivity: 0.00012 ± 1.4e-05 S/m
621.13 K, 20620 kPa, m1 = 0.00498
  electrical conductivity: 0.000125 ± 1.5e-05 S/m
621.13 K, 20620 kPa, m1 = 0.01107
  electrical conductivity: 0.000138 ± 1.7e-05 S/m
621.13 K, 20620 kPa, m1 = 0.01908
  electrical conductivity: 0.000161 ± 1.9e-05 S/m

Reference: the NIST ThermoML archive (doi:10.1016/j.jct.2016.11.007)
